# Measured values: patent US8597875B2, “Method for diagnosing liver toxicity with sex specific biomarkers” (BASF SE, priority 2008, dated 2013)
# Legend:
# male rats = assay: Plasma metabolite profiling (GC-MS/LC-MS) for liver toxicity markers, 28-day gavage study, male rats; type: in vivo, rat; details: male rats
# Method: (§1) A group of each 5 male and female rats was dosed once daily with the indicated compounds (see tables below) at 10 and 100 mg/kg body weight per gavage over 28 days. Additional groups of each 5 male and female animals served as controls. Before starting the treatment period, animals, which were 62-64 days old when supplied, were acclimatized to the housing and environmental conditions for 7 days. All animals of the animal population were kept under the same constant temperature (20-24±3° C.) and the same constant humidity (30-70%). Each animal of the animal population was kept in a separate cage. The animals of the animal population are fed ad libitum. The food to be used was be essentially free of chemical or microbial contaminants. Drinking water was also offered ad libitum. Accordingly, the water was be free of chemical and microbial contaminants as laid down in the European Drinking Water Directive 98/83/EG. The illumination period was 12 hours light followed by 12 hours darkness (12 hours light, from 6:00 to 18:00, and 12 hours darkness, from 18:00 to 6:00).
# (§2) In the morning of day 7, 14, and 28, blood was taken from the retroorbital venous plexus from fasted anaesthetized animals. From each animal, 1 ml of blood was collected with EDTA as anticoagulant. The samples were be centrifuged for generation of plasma. All plasma samples were covered with a N2 atmosphere and then stored at −80° C. until analysis.
# (§3) For mass spectrometry-based metabolite profiling analyses plasma samples were extracted and a polar and a non-polar fraction was obtained. For GC-MS analysis, the non-polar fraction was treated with methanol under acidic conditions to yield the fatty acid methyl esters. Both fractions were further derivatised with O-methyl-hydroxyamine hydrochloride and pyridine to convert Oxo-groups to O-methyloximes and subsequently with a silylating agent before analysis. In LC-MS analysis, both fractions were reconstituted in appropriate solvent mixtures. HPLC was performed by gradient elution on reversed phase separation columns. For mass spectrometric detection metanomics proprietary technology was applied which allows target and high sensitivity MRM (Multiple Reaction Monitoring) profiling in parallel to a full screen analysis.
# (§4) Following comprehensive analytical validation steps, the data for each analyte were normalized against data from pool samples. These samples were run in parallel through the whole process to account for process variability. The significance of treatment group values specific for sex, dose group and metabolite was determined by comparing means of the treated groups to the means of the respective untreated control groups using WELCH-test. Normalized treatment group values and their significance were fed into a database for further statistics and data mining processes.
# (§5) The changes of the group of plasma metabolites being indicative for liver toxicity after treatment of the rats are shown in the following tables: […]
# female rats = assay: Plasma metabolite profiling (GC-MS/LC-MS) for liver toxicity markers, 28-day gavage study, female rats; type: in vivo, rat; details: female rats, fh7 (day 7)
# Method: as §1, §2, §3, §4, §5
compound,measurement,setting,value
C1CCOC1 [Tetrahydrofuran],"1,2-Dioleoyl-sn-glycero-3-phosphatidyl-L-serine, change of plasma metabolite",male rats; mh7 (day 7),1.70
same,"4-Hydroxysphingosine, change of plasma metabolite",male rats; mh7 (day 7),2.67
same,"Arachidonic acid (C20:cis-[5,8,11,14]4), change of plasma metabolite",male rats; mh7 (day 7),1.71
same,"Behenic acid (C22:0), change of plasma metabolite",male rats; mh7 (day 7),1.35
same,"Ceramide (d18:1, C24:0), change of plasma metabolite",male rats; mh7 (day 7),1.37
same,"Ceramide (d18:1, C24:1), change of plasma metabolite",male rats; mh7 (day 7),1.53
same,"Cholesterol, change of plasma metabolite",male rats; mh7 (day 7),1.81
same,"Docosahexaenoic acid (C22:cis[4,7,10,13,16,19]6), change of plasma metabolite",male rats; mh7 (day 7),2.52
same,"Eicosatrienoic acid, change of plasma metabolite",male rats; mh7 (day 7),3.13
same,"Glycerolphosphate, lipid fraction, change of plasma metabolite",male rats; mh7 (day 7),1.94
same,"Heptadecanoic acid (C17:0), change of plasma metabolite",male rats; mh7 (day 7),1.52
same,"Lignoceric acid (C24:0), change of plasma metabolite",male rats; mh7 (day 7),1.62
same,"Linoleic acid (C18:cis[9,12]2), change of plasma metabolite",male rats; mh7 (day 7),1.52
same,"Nervonic acid (C24:1), change of plasma metabolite",male rats; mh7 (day 7),1.88
same,"Palmitic acid (C16:0), change of plasma metabolite",male rats; mh7 (day 7),1.48
same,"Phosphatidylcholine (C18:0/C22:6), change of plasma metabolite",male rats; mh7 (day 7),1.83
same,"Phosphatidylcholine (C18:2, C20:4), change of plasma metabolite",male rats; mh7 (day 7),1.52
same,"Sphingomyelin (d18:1, C16:0), change of plasma metabolite",male rats; mh7 (day 7),1.46
same,"Tricosanoic acid (C23:0), change of plasma metabolite",male rats; mh7 (day 7),1.51
same,"alpha-Tocopherol, change of plasma metabolite",male rats; mh7 (day 7),2.61
same,"myo-Inositol-2-monophosphate, lipid fraction, change of plasma metabolite",male rats; mh7 (day 7),1.70
same,"1,2-Dioleoyl-sn-glycero-3-phosphatidyl-L-serine, change of plasma metabolite",male rats; mh14 (day 14),1.81
same,"4-Hydroxysphingosine, change of plasma metabolite",male rats; mh14 (day 14),2.56
same,"Arachidonic acid (C20:cis-[5,8,11,14]4), change of plasma metabolite",male rats; mh14 (day 14),1.64
same,"Behenic acid (C22:0), change of plasma metabolite",male rats; mh14 (day 14),1.77
same,"Ceramide (d18:1, C24:0), change of plasma metabolite",male rats; mh14 (day 14),1.55
same,"Ceramide (d18:1, C24:1), change of plasma metabolite",male rats; mh14 (day 14),1.48
same,"Cholesterol, change of plasma metabolite",male rats; mh14 (day 14),1.98
same,"Docosahexaenoic acid (C22:cis[4,7,10,13,16,19]6), change of plasma metabolite",male rats; mh14 (day 14),2.37
same,"Eicosatrienoic acid, change of plasma metabolite",male rats; mh14 (day 14),3.76
same,"Glycerolphosphate, lipid fraction, change of plasma metabolite",male rats; mh14 (day 14),1.93
same,"Heptadecanoic acid (C17:0), change of plasma metabolite",male rats; mh14 (day 14),1.54
same,"Lignoceric acid (C24:0), change of plasma metabolite",male rats; mh14 (day 14),1.71
same,"Linoleic acid (C18:cis[9,12]2), change of plasma metabolite",male rats; mh14 (day 14),1.46
same,"Nervonic acid (C24:1), change of plasma metabolite",male rats; mh14 (day 14),1.87
same,"Palmitic acid (C16:0), change of plasma metabolite",male rats; mh14 (day 14),1.49
same,"Phosphatidylcholine (C18:0/C22:6), change of plasma metabolite",male rats; mh14 (day 14),1.71
same,"Phosphatidylcholine (C18:2, C20:4), change of plasma metabolite",male rats; mh14 (day 14),1.46
same,"Sphingomyelin (d18:1, C16:0), change of plasma metabolite",male rats; mh14 (day 14),1.45
same,"Tricosanoic acid (C23:0), change of plasma metabolite",male rats; mh14 (day 14),1.74
same,"alpha-Tocopherol, change of plasma metabolite",male rats; mh14 (day 14),2.23
same,"myo-Inositol-2-monophosphate, lipid fraction, change of plasma metabolite",male rats; mh14 (day 14),2.40
same,"1,2-Dioleoyl-sn-glycero-3-phosphatidyl-L-serine, change of plasma metabolite",male rats; mh28 (day 28),1.84
same,"4-Hydroxysphingosine, change of plasma metabolite",male rats; mh28 (day 28),2.64
same,"Arachidonic acid (C20:cis-[5,8,11,14]4), change of plasma metabolite",male rats; mh28 (day 28),1.76
same,"Behenic acid (C22:0), change of plasma metabolite",male rats; mh28 (day 28),1.65
same,"Ceramide (d18:1, C24:0), change of plasma metabolite",male rats; mh28 (day 28),1.40
same,"Ceramide (d18:1, C24:1), change of plasma metabolite",male rats; mh28 (day 28),1.18
same,"Cholesterol, change of plasma metabolite",male rats; mh28 (day 28),2.03
same,"Docosahexaenoic acid (C22:cis[4,7,10,13,16,19]6), change of plasma metabolite",male rats; mh28 (day 28),2.02
same,"Eicosatrienoic acid, change of plasma metabolite",male rats; mh28 (day 28),3.77
same,"Glycerolphosphate, lipid fraction, change of plasma metabolite",male rats; mh28 (day 28),2.15
same,"Heptadecanoic acid (C17:0), change of plasma metabolite",male rats; mh28 (day 28),1.51
same,"Lignoceric acid (C24:0), change of plasma metabolite",male rats; mh28 (day 28),1.57
same,"Linoleic acid (C18:cis[9,12]2), change of plasma metabolite",male rats; mh28 (day 28),1.50
same,"Nervonic acid (C24:1), change of plasma metabolite",male rats; mh28 (day 28),1.97
same,"Palmitic acid (C16:0), change of plasma metabolite",male rats; mh28 (day 28),1.36
same,"Phosphatidylcholine (C18:0/C22:6), change of plasma metabolite",male rats; mh28 (day 28),1.32
same,"Phosphatidylcholine (C18:2, C20:4), change of plasma metabolite",male rats; mh28 (day 28),1.18
same,"Sphingomyelin (d18:1, C16:0), change of plasma metabolite",male rats; mh28 (day 28),1.39
same,"Tricosanoic acid (C23:0), change of plasma metabolite",male rats; mh28 (day 28),1.55
same,"alpha-Tocopherol, change of plasma metabolite",male rats; mh28 (day 28),2.15
same,"myo-Inositol-2-monophosphate, lipid fraction, change of plasma metabolite",male rats; mh28 (day 28),2.70
same,"1,2-Dioleoyl-sn-glycero-3-phosphatidyl-L-serine, change of plasma metabolite",female rats,1.49
same,"4-Hydroxysphinganine, change of plasma metabolite",female rats,1.98
same,"Arachidonic acid (C20:cis-[5,8,11,14]4), change of plasma metabolite",female rats,1.85
same,"Behenic acid (C22:0), change of plasma metabolite",female rats,1.52
same,"Ceramide (d18:1, C24:0), change of plasma metabolite",female rats,1.85
same,"Cholesterol, change of plasma metabolite",female rats,2.18
same,"Docosahexaenoic acid (C22:cis[4,7,10,13,16,19]6), change of plasma metabolite",female rats,3.22
same,"Glycerol, lipid fraction, change of plasma metabolite",female rats,1.89
same,"Glycerolphosphate, lipid fraction, change of plasma metabolite",female rats,1.77
same,"Heptadecanoic acid (C17:0), change of plasma metabolite",female rats,1.72
same,"ID28x493, change of plasma metabolite",female rats,2.44
same,"Lignoceric acid (C24:0), change of plasma metabolite",female rats,1.59
same,"Linoleic acid (C18:cis[9,12]2), change of plasma metabolite",female rats,2.43
same,"Nervonic acid (C24:1), change of plasma metabolite",female rats,1.54
same,"Palmitic acid (C16:0), change of plasma metabolite",female rats,1.97
same,"Phosphate, lipid (Phospholipids), change of plasma metabolite",female rats,1.37
same,"Stearic acid (C18:0), change of plasma metabolite",female rats,1.60
same,"TAG No 1, change of plasma metabolite",female rats,1.66
same,"Threonic acid, change of plasma metabolite",female rats,1.92
same,"Tricosanoic acid (C23:0), change of plasma metabolite",female rats,1.80
